The values that follow are results of earlier work, collected in patent US7390502B2, “SN-38 lipid complexes and their methods of use” (NeoPharm, Inc., priority 2000, dated 2008).

Structures are written as SMILES.

In series [1] the test system is topoisomerase I purified from human and rodent tumor cell lines. The following applies: versus irinotecan; enzyme purified from human and rodent tumor cell lines.
The conditions of series [2]: versus irinotecan.
For series [3] the following is noted: aqueous solutions / water.
The conditions of series [4]: tends to precipitate into aqueous phase.

Consider `CCc1c2c(nc3ccc(O)cc13)-c1cc3c(c(=O)n1C2)COC(=O)[C@]3(O)CC` [SN-38, 7-ethyl-10-hydroxycamptothecin], for which the “potency relative to irinotecan as an inhibitor of topoisomerase I” value in series [1] is on record as “approximately 1000 times”. Also, the “potency relative to irinotecan in in vitro cytotoxicity assays” value in series [2] is “up to 2,000 fold”. The “solubility in aqueous solutions” value in series [3] was “exceedingly insoluble”. The “affinity for lipid membranes” value in series [4] is on record as “low affinity”.
